Tests used:
[1] = test system: MOLM-14 D835Y (endogenous FLT3 ITD and transfected FLT3 D835Y); test: MOLM-14 D835Y cell proliferation assay (CellTiter-Glo); type: cell-based; details: Homo sapiens, MOLM-14, 72 h; 3 d growth, GMean
Procedure, shortened: (§1)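 MOLM-14 derivatives carrying D835Y or F691L, selected under escalating AC220, were seeded at 1×10^4 cells/well and exposed to an 8-point 1:3 compound series (1 to 0.00046 μM, 0.2% DMSO final) for three days at 37° C., 5% CO2. CellTiter-Glo luminescence (ATP content) versus concentration gave IC50.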

[2] = test system: MOLM-14 F691L (endogenous FLT3 ITD and transfected FLT3 F691L); test: MOLM-14 F691L cell proliferation assay (CellTiter-Glo); type: cell-based; details: Homo sapiens, MOLM-14, 72 h; 3 d growth, GMean
Procedure, shortened: as §1

c-KIT = biological target: T1, c-KIT (Homo sapiens, UniProt P10721); test: c-KIT recombinant enzyme kinase assay (AlphaScreen); type: biochemical; details: 100 ATP, 8 pt
T1 construct: purchased Millipore 14-559K
Procedure, shortened: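 IC50 values are derived from reduced AlphaScreen signal as inhibitors block tyrosine phosphorylation of a biotinylated poly(Glu4-Tyr) peptide (30 nM) by recombinant kinase. FLT3 variants are run at 10 μM ATP, c-KIT at 100 μM.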

T1 sequence (P10721 26-976): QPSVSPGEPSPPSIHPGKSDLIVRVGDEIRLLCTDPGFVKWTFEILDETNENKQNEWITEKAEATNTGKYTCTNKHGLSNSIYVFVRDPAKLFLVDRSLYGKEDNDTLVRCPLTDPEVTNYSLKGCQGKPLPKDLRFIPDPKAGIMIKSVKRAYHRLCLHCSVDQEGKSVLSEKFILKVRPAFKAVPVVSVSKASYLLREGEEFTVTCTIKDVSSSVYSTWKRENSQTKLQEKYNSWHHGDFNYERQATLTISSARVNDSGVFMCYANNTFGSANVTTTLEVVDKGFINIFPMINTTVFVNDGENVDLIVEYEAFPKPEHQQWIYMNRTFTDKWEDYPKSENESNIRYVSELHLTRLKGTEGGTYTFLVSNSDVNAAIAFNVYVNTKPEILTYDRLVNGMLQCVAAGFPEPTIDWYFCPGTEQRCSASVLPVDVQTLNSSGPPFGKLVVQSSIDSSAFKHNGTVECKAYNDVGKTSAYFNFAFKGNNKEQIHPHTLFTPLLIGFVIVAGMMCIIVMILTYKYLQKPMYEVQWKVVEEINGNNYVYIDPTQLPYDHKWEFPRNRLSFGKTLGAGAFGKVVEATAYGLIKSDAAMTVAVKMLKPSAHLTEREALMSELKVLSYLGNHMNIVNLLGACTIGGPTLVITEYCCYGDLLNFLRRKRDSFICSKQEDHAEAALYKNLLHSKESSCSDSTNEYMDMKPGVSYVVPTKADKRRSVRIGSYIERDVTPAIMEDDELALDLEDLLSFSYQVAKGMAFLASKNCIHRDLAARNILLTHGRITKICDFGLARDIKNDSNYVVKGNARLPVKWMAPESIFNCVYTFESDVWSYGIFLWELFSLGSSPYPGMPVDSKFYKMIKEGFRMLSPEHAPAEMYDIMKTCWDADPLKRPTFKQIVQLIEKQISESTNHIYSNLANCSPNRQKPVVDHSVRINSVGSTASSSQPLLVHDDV

SMILES | IC50 [1] [µM] | IC50 [2] [µM] | IC50 (c-KIT) [µM]
CC(C)(C)c1ccc(NC(=O)Cc2ccc(-c3cnc4[nH]cc(F)c4c3)cc2F)cn1 [Compound P-0043, N-(6-tert-butyl-3-pyridyl)-2-[2-fluoro-4-(3-fluoro-1H-pyrrolo[2,3-b]pyridin-5-yl)phenyl]acetamide] | 0.0001 to 10 | 0.0001 to 10 | 0.0001 to 10
COc1nn(C[C@H](C)O)cc1Nc1ncc(-c2ccc(CC(=O)Nc3cncc(C(F)(F)F)c3)c(F)c2)cn1 [Compound P-0050, 2-[2-fluoro-4-[2-[[1-[(2S)-2-hydroxypropyl]-3-methoxy-pyrazol-4-yl]amino]pyrimidin-5-yl]phenyl]-N-[5-(trifluoromethyl)-3-pyridyl]acetamide] | 0.0001 to 10 | 0.0001 to 10 | 0.0001 to 10
COc1ncc(NC(=O)Cc2ccc(-c3cnc(Nc4cn[nH]c4)nc3)cc2)cc1C(F)(F)F [Compound P-0025, N-[6-methoxy-5-(trifluoromethyl)-3-pyridyl]-2-[4-[2-(1H-pyrazol-4-ylamino)pyrimidin-5-yl]phenyl]acetamide] | 0.0001 to 10 | 0.0001 to 10 | 0.0001 to 10
O=C(Cc1ccc(-c2cnc3[nH]cc(F)c3c2)cc1F)Nc1cc(Cl)c(C2CC2)cn1 [Compound P-0044, N-(4-chloro-5-cyclopropyl-2-pyridyl)-2-[2-fluoro-4-(3-fluoro-1H-pyrrolo[2,3-b]pyridin-5-yl)phenyl]acetamide] | 0.0001 to 10 | 0.0001 to 10 | 0.0001 to 10
O=C(Cc1ccc(-c2cnc3[nH]cc(C(=O)C4CC4)c3c2)cc1F)Nc1ccnc(C(F)(F)F)c1 [Compound P-0032, 2-[4-[3-(cyclopropanecarbonyl)-1H-pyrrolo[2,3-b]pyridin-5-yl]-2-fluoro-phenyl]-N-[2-(trifluoromethyl)-4-pyridyl]acetamide] | 0.0001 to 10 | 0.0001 to 10 | 0.0001 to 10
O=C(Cc1ccc(-c2cnc3[nH]cc(Cl)c3n2)cc1F)Nc1cnc(Cl)c(C(F)(F)F)c1 [Compound P-0060, 2-[4-(7-chloro-5H-pyrrolo[2,3-b]pyrazin-2-yl)-2-fluoro-phenyl]-N-[6-chloro-5-(trifluoromethyl)-3-pyridyl]acetamide] | 0.0001 to 10 | 0.0001 to 10 | 0.0001 to 10
COc1ncc(NC(=O)Cc2cc(F)c(-c3cnc4[nH]cc(F)c4c3)cc2F)cc1C(F)(F)F [Compound P-0051, 2-[2,5-difluoro-4-(3-fluoro-1H-pyrrolo[2,3-b]pyridin-5-yl)phenyl]-N-[6-methoxy-5-(trifluoromethyl)-3-pyridyl]acetamide] | – | – | 0.0001 to 10
COc1ncc(NC(=O)Cc2ccc(-c3cnc4[nH]c(Cl)cc4c3)cc2F)cc1C(F)(F)F [Compound P-0038, 2-[4-(2-chloro-1H-pyrrolo[2,3-b]pyridin-5-yl)-2-fluoro-phenyl]-N-[6-methoxy-5-(trifluoromethyl)-3-pyridyl]acetamide] | 0.0001 to 10 | 0.0001 to 10 | –
O=C(Cc1ccc(-c2cnc3[nH]c(Cl)cc3c2)cc1F)Nc1ccnc(C(F)(F)F)c1 [Compound P-0030, 2-[4-(2-chloro-1H-pyrrolo[2,3-b]pyridin-5-yl)-2-fluoro-phenyl]-N-[2-(trifluoromethyl)-4-pyridyl]acetamide] | – | 0.0001 to 10 | 0.0001 to 10
O=C(Cc1ccc(-c2cnc3[nH]cc(F)c3c2)cc1F)Nc1ccnc(C(F)(F)F)c1 [Compound P-0029, 2-[2-fluoro-4-(3-fluoro-1H-pyrrolo[2,3-b]pyridin-5-yl)phenyl]-N-[2-(trifluoromethyl)-4-pyridyl]acetamide] | – | – | 0.0001 to 10
O=C(Cc1ccc(-c2cnc3c(c2)C2(CC2)C(=O)N3)cc1F)Nc1cncc(C(F)(F)F)c1 [Compound P-0064, 2-(2-fluoro-4-(2′-oxo-1′,2′-dihydrospiro[cyclopropane-1,3′-pyrrolo[2,3-b]pyridin]-5′-yl)phenyl)-N-(5-(trifluoromethyl)pyridin-3-yl)acetamide] | 0.0001 to 10 | – | 0.0001 to 10
COc1ncc(NC(=O)Cc2ccc(-c3cnc4[nH]cc(F)c4c3)c(F)c2)cc1C(F)(F)F [Compound P-0048, 2-[3-fluoro-4-(3-fluoro-1H-pyrrolo[2,3-b]pyridin-5-yl)phenyl]-N-[6-methoxy-5-(trifluoromethyl)-3-pyridyl]acetamide] | – | – | 0.0001 to 10
COc1ncc(NC(=O)Cc2ccc(-c3cnc4[nH]cc(C(=O)C5CC5)c4c3)cc2F)cc1C(F)(F)F [Compound P-0036, 2-[4-[3-(cyclopropanecarbonyl)-1H-pyrrolo[2,3-b]pyridin-5-yl]-2-fluoro-phenyl]-N-[6-methoxy-5-(trifluoromethyl)-3-pyridyl]acetamide] | 0.0001 to 10 | – | 0.0001 to 10
CC(=O)c1c[nH]c2ncc(-c3ccc(CC(=O)Nc4ccnc(C(F)(F)F)c4)c(F)c3)cc12 [Compound P-0031, 2-(4-(3-acetyl-1H-pyrrolo[2,3-b]pyridin-5-yl)-2-fluorophenyl)-N-(2-(trifluoromethyl)pyridin-4-yl)acetamide] | 0.0001 to 10 | – | 0.0001 to 10

Next, values leading:

IC50 [1] [µM] | IC50 [2] [µM] | IC50 (c-KIT) [µM] | SMILES
0.0001 to 10 | 0.0001 to 10 | 0.0001 to 10 | Cn1cc(Nc2ncc(-c3ccc(CC(=O)NCc4ccc(C(F)(F)F)nc4)c(F)c3)cn2)cn1 [Compound P-0087, 2-[2-fluoro-4-[2-[(1-methylpyrazol-4-yl)amino]pyrimidin-5-yl]phenyl]-N-[[6-(trifluoromethyl)-3-pyridyl]methyl]acetamide]
0.0001 to 10 | 0.0001 to 10 | 0.0001 to 10 | Cn1cc(Nc2ncc(-c3ccc(CC(=O)Nc4cc(C(F)(F)F)ccn4)c(F)c3)cn2)cn1 [Compound P-0082, 2-[2-fluoro-4-[2-[(1-methylpyrazol-4-yl)amino]pyrimidin-5-yl]phenyl]-N-[4-(trifluoromethyl)-2-pyridyl]acetamide]
0.0001 to 10 | 0.0001 to 10 | 0.0001 to 10 | Cc1ncc(NC(=O)Cc2ccc(-c3cnc(Nc4cnn5ccccc45)nc3)cc2F)cc1C(F)(F)F [Compound P-0065, 2-(2-fluoro-4-(2-(pyrazolo[1,5-a]pyridin-3-ylamino)pyrimidin-5-yl)phenyl)-N-(6-methyl-5-(trifluoromethyl)pyridin-3-yl)acetamide]
0.0001 to 10 | 0.0001 to 10 | 0.0001 to 10 | COc1cncc(NC(=O)Cc2ccc(-c3cnc(Nc4cnn(C)c4)nc3)cc2F)c1 [Compound P-0086, 2-[2-fluoro-4-[2-[(1-methylpyrazol-4-yl)amino]pyrimidin-5-yl]phenyl]-N-(5-methoxy-3-pyridyl)acetamide]
– | – | 0.0001 to 10 | Cn1cnc(Nc2ncc(-c3ccc(CC(=O)Nc4cc(C(C)(F)F)ccn4)cc3F)cn2)c1 [Compound P-0171, N-[4-(1,1-difluoroethyl)-2-pyridyl]-2-[3-fluoro-4-[2-[(1-methylimidazol-4-yl)amino]pyrimidin-5-yl]phenyl]acetamide]
0.0001 to 10 | 0.0001 to 10 | 0.0001 to 10 | Cn1cnc(Nc2ncc(-c3cc(F)c(CC(=O)Nc4cncc(C(F)(F)F)c4)cc3F)cn2)c1 [Compound P-0078, 2-(2,5-difluoro-4-(2-((1-methyl-1H-imidazol-4-yl)amino)pyrimidin-5-yl)phenyl)-N-(5-(trifluoromethyl)pyridin-3-yl)acetamide]
0.0001 to 10 | 0.0001 to 10 | 0.0001 to 10 | Cn1cc(Nc2ncc(-c3ccc(CC(=O)Nc4cncc(C(F)(F)F)c4)c(F)c3)cn2)cn1 [Compound P-0084, 2-[2-fluoro-4-[2-[(1-methylpyrazol-4-yl)amino]pyrimidin-5-yl]phenyl]-N-[5-(trifluoromethyl)-3-pyridyl]acetamide]
0.0001 to 10 | 0.0001 to 10 | 0.0001 to 10 | Cn1cc(Nc2ncc(-c3ccc(CC(=O)Nc4ccnc(C(F)(F)F)c4)c(F)c3)cn2)cn1 [Compound P-0083, 2-[2-fluoro-4-[2-[(1-methylpyrazol-4-yl)amino]pyrimidin-5-yl]phenyl]-N-[2-(trifluoromethyl)-4-pyridyl]acetamide]
0.0001 to 10 | 0.0001 to 10 | 0.0001 to 10 | Cc1ncc(NC(=O)Cc2ccc(-c3cnc4[nH]nc(C5CC5)c4c3)cc2F)cc1C(F)(F)F [Compound P-0066, 2-(4-(3-cyclopropyl-1H-pyrazolo[3,4-b]pyridin-5-yl)-2-fluorophenyl)-N-(6-methyl-5-(trifluoromethyl)pyridin-3-yl)acetamide]
0.0001 to 10 | 0.0001 to 10 | 0.0001 to 10 | Cc1nn(C)cc1Nc1ncc(-c2ccc(CC(=O)Nc3cnc(C)c(C(F)(F)F)c3)c(F)c2)cn1 [Compound P-0077, 2-[4-[2-[(1,3-dimethylpyrazol-4-yl)amino]pyrimidin-5-yl]-2-fluoro-phenyl]-N-[6-methyl-5-(trifluoromethyl)-3-pyridyl]acetamide]
0.0001 to 10 | – | – | O=C(Cc1cc(F)c(-c2cnc(Nc3cnn4ccccc34)nc2)cc1F)Nc1cncc(C(F)(F)F)c1 [Compound P-0075, 2-[2,5-difluoro-4-[2-(pyrazolo[1,5-a]pyridin-3-ylamino)pyrimidin-5-yl]phenyl]-N-[5-(trifluoromethyl)-3-pyridyl]acetamide]
0.0001 to 10 | 0.0001 to 10 | – | O=C(Cc1ccc(-c2cnc(Nc3cnn4ccccc34)nc2)cc1)Nc1cncc(C(F)(F)F)c1 [Compound P-0074, 2-[4-[2-(pyrazolo[1,5-a]pyridin-3-ylamino)pyrimidin-5-yl]phenyl]-N-[5-(trifluoromethyl)-3-pyridyl]acetamide]
– | 0.0001 to 10 | 0.0001 to 10 | Cn1cc(Nc2ncc(-c3ccc(CC(=O)NCc4ccc(C(F)(F)F)cn4)cc3)cn2)cn1 [Compound P-0162, 2-[4-[2-[(1-methylpyrazol-4-yl)amino]pyrimidin-5-yl]phenyl]-N-[[5-(trifluoromethyl)-2-pyridyl]methyl]acetamide]
